Data taken from patent US10501514B2, “Cyclic galanin-analogs and uses thereof” (LanthioPep B.V., priority 2015, dated 2019).
“Also recorded” adds a separate entry of the source. Values belong to the molecule of their own block, whether it stands above or below them.

Columns and labels:
GalR2 = target: T1, GalR2 (Homo sapiens, UniProt O43603); type: cell-based; settings: for efficacy via GalR2 compared with GalWtb, in words: GalR2, Table 1 data
T1 construct: expressed in transfected cells; host or cells: HEK293
T1 sequence (O43603 1-387): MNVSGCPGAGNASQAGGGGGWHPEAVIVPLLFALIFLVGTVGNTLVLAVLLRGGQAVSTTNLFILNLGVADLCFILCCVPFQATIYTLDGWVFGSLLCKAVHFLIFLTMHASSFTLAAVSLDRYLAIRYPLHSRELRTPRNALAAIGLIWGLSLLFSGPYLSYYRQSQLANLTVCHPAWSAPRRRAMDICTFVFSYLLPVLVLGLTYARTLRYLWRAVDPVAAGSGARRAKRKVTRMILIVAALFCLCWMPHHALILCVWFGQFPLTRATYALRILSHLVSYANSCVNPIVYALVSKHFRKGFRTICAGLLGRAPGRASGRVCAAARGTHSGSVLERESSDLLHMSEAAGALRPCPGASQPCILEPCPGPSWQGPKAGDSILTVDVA
Protocol: (§1) ND indicates ‘not determined’.
Peptide was dissolved in 0.3% ammonia. […] Different isomers were purified and lyophilized.

[1] = tested on: Galanin receptor (GalR1, GalR2); experiment: Galanin receptor activation assays, overall statements in words; type: cell-based; settings: for preference for stimulating GalR2 (over GalR1), in words: GalR2 versus GalR1; for activity, in words: overall statement on galanin receptor activation
Protocol: (§2) The biological activity of the (lanthi)galanins was determined in CHO-K1 cell lines that express either the GalR1, or GalR2 receptor. Activity measurements were performed using commercial kits from DiscoverX for determining arrestin recruitment (GalR1, GalR2) and inhibition of cAMP synthesis (GalR1). In addition, HEK293 cell lines that express the GalR2 receptor have been used for methods from Molecular Probes to measure calcium efflux (GalR2).
(§3) Peptide was dissolved in 0.3% ammonia. Peptides were incubated o/n at 37° C. for the introduction of the lanthionine via base assisted sulfur extrusion of the disulfide bridged peptide. Different isomers could be isolated by HPLC applying the same method as was used as for the biologically produced peptides. Different isomers were purified and lyophilized. Dry peptides were dissolved in 100 mM phosphate buffer pH=7.6 and peptides were incubated o/n at 50° C. After HPLC purification peptides with a pE formation were selected and used in the different Galanin receptor activation assays.

GalR1 [2] = target: T2, GalR1 (Homo sapiens, UniProt P47211); settings: FIG. 1
T2 sequence (P47211 1-349): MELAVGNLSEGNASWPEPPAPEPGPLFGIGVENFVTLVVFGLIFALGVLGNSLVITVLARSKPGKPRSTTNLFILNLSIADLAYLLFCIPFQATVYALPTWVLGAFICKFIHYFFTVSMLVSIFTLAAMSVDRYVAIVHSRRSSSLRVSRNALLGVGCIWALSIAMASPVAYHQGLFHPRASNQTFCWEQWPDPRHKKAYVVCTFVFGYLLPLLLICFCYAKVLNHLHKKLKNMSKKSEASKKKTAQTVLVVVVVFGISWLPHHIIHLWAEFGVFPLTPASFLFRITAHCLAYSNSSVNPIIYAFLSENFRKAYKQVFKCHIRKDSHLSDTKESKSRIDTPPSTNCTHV
Protocol: as §2, §1
as §3, with “Different isomers could be isolated by HPLC applying the same method as was used as for the biologically produced peptides.” left out

GalR1 [3] = target: T2, GalR1; experiment: inhibition of cAMP synthesis in CHO-K1 cells expressing GalR1 (DiscoverX kit); type: cell-based; set-up: host or cells: CHO-K1; settings: FIG. 3
Protocol: as §2, §1
as §3, with “Different isomers could be isolated by HPLC applying the same method as was used as for the biologically produced peptides.” left out

SMILES: CC(C)C[C@@H]1NC(=O)[C@H](CC(C)C)NC(=O)[C@H](Cc2ccc(O)cc2)NC(=O)C(NC(=O)[C@H](C)NC(=O)[C@H](C)NC(=O)[C@H](CC(N)=O)NC(=O)[C@H](CC(C)C)NC(=O)[C@@H](NC(=O)[C@H](Cc2c[nH]c3ccccc23)NC(=O)[C@@H]2CCC(=O)N2)[C@@H](C)O)CSCC(C(=O)O)NC1=O (single isomer, unassigned) [4179 C, pEWTLNAAlanYLLlan]
Ratio EC50s relative to Gal-(1-15), GalR2 Ca efflux (GalR2): 248

SMILES: CC(C)C[C@H](NC(=O)[C@H](CC(C)C)NC(=O)[C@H](Cc1ccc(O)cc1)NC(=O)CNC(=O)[C@H](C)NC(=O)[C@H](C)NC(=O)[C@H](CC(N)=O)NC(=O)[C@H](CC(C)C)NC(=O)[C@H](CC(N)=O)NC(=O)[C@H](Cc1c[nH]c2ccccc12)NC(=O)[C@@H]1CCC(=O)N1)C(=O)N[C@@H](C)C(=O)N[C@H]1C(=O)N[C@@H](Cc2c[nH]cn2)C(=O)N[C@@H](C)C(=O)N[C@H](C(=O)NCC(=O)N[C@@H](CC(N)=O)C(=O)N[C@@H](Cc2c[nH]cn2)C(=O)N[C@@H](CCCNC(=N)N)C(=O)O)CS[C@H]1C [GalM50b]
preference for stimulating GalR2 (over GalR1), in words [1]: preference for stimulating GalR2

SMILES: CC(C)C[C@H](NC(=O)[C@H](CC(C)C)NC(=O)[C@H](Cc1ccc(O)cc1)NC(=O)CNC(=O)[C@H](C)NC(=O)[C@H](C)NC(=O)[C@H](CC(N)=O)NC(=O)[C@H](CC(C)C)NC(=O)[C@H](CC(N)=O)NC(=O)[C@H](Cc1c[nH]c2ccccc12)NC(=O)CN)C(=O)NCC(=O)N[C@@H](C)C(=O)N[C@H]1C(=O)N[C@@H](C)C(=O)N[C@@H](C(C)C)C(=O)N[C@H](C(=O)N[C@@H](CC(N)=O)C(=O)N[C@@H](Cc2c[nH]cn2)C(=O)N[C@@H](CCCNC(=N)N)C(=O)O)CS[C@H]1C [GalM51]
β-arrestin recruitment via GalR1, in words (GalR1 [2]): induced β-arrestin recruitment via GalR1 | cAMP production via GalR1, in words (GalR1 [3]): inhibit cAMP production via GalR1

SMILES: CC(C)C[C@H](NC(=O)[C@H](CC(C)C)NC(=O)[C@H](Cc1ccc(O)cc1)NC(=O)CNC(=O)[C@H](C)NC(=O)[C@H](C)NC(=O)[C@H](CC(N)=O)NC(=O)[C@H](CC(C)C)NC(=O)[C@H](CC(N)=O)NC(=O)[C@H](Cc1c[nH]c2ccccc12)NC(=O)CN)C(=O)NCC(=O)N1CCC[C@H]1C(=O)N[C@@H](Cc1c[nH]cn1)C(=O)N[C@H]1C(=O)N[C@@H](C(C)C)C(=O)NCC(=O)N[C@H](C(=O)N[C@@H](Cc2c[nH]cn2)C(=O)N[C@@H](CCCNC(=N)N)C(=O)O)CS[C@H]1C [GalM52]
cAMP production via GalR1, in words (GalR1 [3]): inhibit cAMP production via GalR1

SMILES: CC(C)C[C@H](NC(=O)[C@H](CC(C)C)NC(=O)[C@H](Cc1ccc(O)cc1)NC(=O)CNC(=O)[C@H](C)NC(=O)[C@H](C)NC(=O)[C@H](CC(N)=O)NC(=O)[C@H](CC(C)C)NC(=O)[C@H](CC(N)=O)NC(=O)[C@H](Cc1c[nH]c2ccccc12)NC(=O)[C@@H]1CCC(=O)N1)C(=O)NCC(=O)N[C@@H](C)C(=O)N[C@H]1C(=O)N[C@@H](C)C(=O)N[C@@H](C(C)C)C(=O)N[C@H](C(=O)N[C@@H](CC(N)=O)C(=O)N[C@@H](Cc2c[nH]cn2)C(=O)N[C@@H](CCCNC(=N)N)C(=O)O)CS[C@H]1C [GalM54]
β-arrestin recruitment via GalR2, preference in words (GalR2; FIG. 2): preferentially stimulates β-arrestin recruitment via GalR2 | preference for stimulating GalR2 (over GalR1), in words [1]: GalR2-specific; also recorded: preference for stimulating GalR2

SMILES: CC(C)C[C@H](NC(=O)[C@H](CC(C)C)NC(=O)[C@H](Cc1ccc(O)cc1)NC(=O)CNC(=O)[C@H](C)NC(=O)[C@H](C)NC(=O)[C@H](CC(N)=O)NC(=O)[C@H](CC(C)C)NC(=O)[C@H](CC(N)=O)NC(=O)[C@H](Cc1c[nH]c2ccccc12)NC(=O)[C@@H]1CCC(=O)N1)C(=O)NCC(=O)N[C@@H](C)C(=O)N[C@H]1C(=O)N[C@@H](C)C(=O)N[C@@H](C(C)C)C(=O)N[C@H](C(=O)N[C@@H](CC(N)=O)C(=O)N[C@@H](Cc2c[nH]cn2)C(=O)O)CS[C@H]1C [GalM54tr]
preference for stimulating GalR2 (over GalR1), in words [1]: GalR2-specific

SMILES: CC(C)C[C@H](NC(=O)[C@H](CC(C)C)NC(=O)[C@H](Cc1ccc(O)cc1)NC(=O)CNC(=O)[C@H](C)NC(=O)[C@H](C)NC(=O)[C@H](CC(N)=O)NC(=O)[C@@H](NC(=O)[C@H](CC(N)=O)NC(=O)[C@H](Cc1c[nH]c2ccccc12)NC(=O)CN)C(C)C)C(=O)NCC(=O)N[C@@H](C)C(=O)N[C@H]1C(=O)N[C@@H](C)C(=O)N[C@@H](C(C)C)C(=O)N[C@H](C(=O)N[C@@H](CC(N)=O)C(=O)N[C@@H](Cc2c[nH]cn2)C(=O)N[C@@H](CCCNC(=N)N)C(=O)O)CS[C@H]1C [GalM92]
efficacy via GalR2 compared with GalWtb, in words (GalR2): comparable efficacy via GalR2 like GalWtb

SMILES: CC(C)C[C@H](NC(=O)[C@H](CC(C)C)NC(=O)[C@H](Cc1ccc(O)cc1)NC(=O)CNC(=O)[C@H](C)NC(=O)[C@H](C)NC(=O)[C@H](CC(N)=O)NC(=O)[C@H](CC(N)=O)NC(=O)[C@H](CC(N)=O)NC(=O)[C@H](Cc1c[nH]c2ccccc12)NC(=O)CN)C(=O)NCC(=O)N[C@@H](C)C(=O)N[C@H]1C(=O)N[C@@H](C)C(=O)N[C@@H](C(C)C)C(=O)N[C@H](C(=O)N[C@@H](CC(N)=O)C(=O)N[C@@H](Cc2c[nH]cn2)C(=O)N[C@@H](CCCNC(=N)N)C(=O)O)CS[C@H]1C [GalM94]
efficacy via GalR2 compared with GalWtb, in words (GalR2): comparable efficacy via GalR2 like GalWtb

Now from value to molecule:

activity, in words [1]: retained some activity
SMILES: CC(C)C[C@@H]1NC(=O)[C@H](Cc2ccc(O)cc2)NC(=O)C(NC(=O)[C@H](C)NC(=O)[C@H](C)NC(=O)[C@H](CC(N)=O)NC(=O)[C@H](CC(C)C)NC(=O)[C@H](CC(N)=O)NC(=O)[C@H](Cc2c[nH]c3ccccc23)NC(=O)CN)CSC[C@@H](C(=O)NCC(=O)N2CCC[C@H]2C(=O)N[C@@H](Cc2c[nH]cn2)C(=O)N[C@@H](C)C(=O)N[C@H](C(=O)NCC(=O)N[C@@H](CC(N)=O)C(=O)N[C@@H](Cc2c[nH]cn2)C(=O)N[C@@H](CCCNC(=N)N)C(=O)O)C(C)C)NC(=O)[C@H](CC(C)C)NC1=O (stereo partly drawn) [GalM73]

preference for stimulating GalR2 (over GalR1), in words [1]: preference for stimulating GalR2
SMILES: CC(C)C[C@H](NC(=O)[C@H](CC(C)C)NC(=O)[C@H](Cc1ccc(O)cc1)NC(=O)CNC(=O)[C@H](C)NC(=O)[C@H](C)NC(=O)[C@H](CC(N)=O)NC(=O)[C@H](CC(C)C)NC(=O)[C@H](CC(N)=O)NC(=O)[C@H](Cc1c[nH]c2ccccc12)NC(=O)[C@@H]1CCC(=O)N1)C(=O)NCC(=O)N1CCC[C@H]1C(=O)N[C@@H](Cc1c[nH]cn1)C(=O)N[C@@H](C)C(=O)N[C@H]1C(=O)NCC(=O)N[C@@H](CC(N)=O)C(=O)N[C@H](C(=O)N[C@@H](CCCNC(=N)N)C(=O)O)CS[C@H]1C [GalM74b]

activity, in words [1]: low activity
SMILES: CC(C)C[C@@H]1NC(=O)[C@H](CC(C)C)NC(=O)[C@H](Cc2ccc(O)cc2)NC(=O)[C@H](NC(=O)[C@H](C)NC(=O)[C@H](C)NC(=O)[C@H](CC(N)=O)NC(=O)[C@H](CC(C)C)NC(=O)[C@H](CC(N)=O)NC(=O)[C@H](Cc2c[nH]c3ccccc23)NC(=O)[C@@H]2CCC(=O)N2)CSC[C@@H](C(=O)O)NC1=O [GalM82]

preference for stimulating GalR2 (over GalR1), in words [1]: preference for stimulating GalR2
SMILES: CC(C)C[C@H](NC(=O)[C@H](CC(C)C)NC(=O)[C@H](Cc1ccc(O)cc1)NC(=O)CNC(=O)[C@H](C)NC(=O)[C@H](C)NC(=O)[C@H](CC(N)=O)NC(=O)[C@H](CC(C)C)NC(=O)[C@H](CC(N)=O)NC(=O)[C@H](Cc1c[nH]c2ccccc12)NC(=O)[C@@H]1CCC(=O)N1)C(=O)NCC(=O)N1CCC[C@H]1C(=O)N[C@H]1C(=O)N[C@@H](C)C(=O)N[C@@H](C(C)C)C(=O)N[C@H](C(=O)O)CS[C@H]1C [GalM87]

preference for stimulating GalR2 (over GalR1), in words [1]: preference for stimulating GalR2
SMILES: CC(C)C[C@H](NC(=O)[C@H](CC(C)C)NC(=O)[C@H](Cc1ccc(O)cc1)NC(=O)CNC(=O)[C@H](C)NC(=O)[C@H](C)NC(=O)[C@H](CC(N)=O)NC(=O)[C@H](CC(C)C)NC(=O)[C@H](CC(N)=O)NC(=O)[C@H](Cc1c[nH]c2ccccc12)NC(=O)[C@@H]1CCC(=O)N1)C(=O)N[C@@H](C)C(=O)N[C@H]1C(=O)N[C@@H](Cc2c[nH]cn2)C(=O)N[C@@H](C)C(=O)N[C@H](C(=O)NCC(=O)O)CS[C@H]1C [GalM89b]
